In paper PMC4728427, “Mechanism of allosteric activation of TMEM16A/ANO1 channels by a commonly used chloride channel blocker” (British Journal of Pharmacology, 2016):

How the values were obtained:
[1] = tested on: non‐transfected HEK‐293T cells; test: Whole-cell endogenous currents in non-transfected cells with extracellular A9C; format: cell-based; conditions: +100 mV, 3000 μM [A9C]ext; without A9C 3.6 ± 0.8
Experimental: (§1) Current versus V m relationships were constructed by measuring currents in response to 1 s V m steps (test pulses) from −100 to +100 mV in 40 mV increments (unless stated otherwise) after a 1 s V m step to +70 mV (pre‐pulse). Pulses were elicited every 2 s from a holding V m of 0 mV. Steady‐state currents were measured at the end of the test pulses. As detailed in the Results, in the presence of 300 nM [Ca^2+]i and extracellular A9C, the test‐pulse currents reached a peak within the first ~50 ms of the test pulse. These peak currents were also measured and plotted against the V m of the test pulse. Current density was obtained by dividing the current amplitude for the cell capacitance.
To test the possibility that A9C activated endogenous currents in HEK‐293T cells, the effect of [A9C]ext (3000 μM) on non‐transfected cells was assessed. No significant increase in current was observed relative to the small endogenous currents measured in non‐transfected cells in the absence of [A9C]ext (Figure 1A). For example, at +100 mV, the current recorded from non‐transfected HEK‐293T cells in the absence and presence of 3000 μM [A9C]ext was 3.6 ± 0.8 pA∙pF^−1 (n = 6) and 3.7 ± 0.7 pA∙pF^−1 (n = 6) respectively.

Mouse TMEM16A [2] = molecular target: T1, Mouse TMEM16A (Mus musculus, UniProt Q8BHY3); test: Non-stationary noise analysis of whole-cell TMEM16A tail currents; format: cell-based; conditions: −70 mV tail pulse, 300 nM [Ca2+]i; for P o: control 0.09 ± 0.02; for single channel current i: control 0.22 ± 0.01
T1 construct: expressed in transfected cells; host or cells: HEK-293T
T1 sequence (Q8BHY3 1-960): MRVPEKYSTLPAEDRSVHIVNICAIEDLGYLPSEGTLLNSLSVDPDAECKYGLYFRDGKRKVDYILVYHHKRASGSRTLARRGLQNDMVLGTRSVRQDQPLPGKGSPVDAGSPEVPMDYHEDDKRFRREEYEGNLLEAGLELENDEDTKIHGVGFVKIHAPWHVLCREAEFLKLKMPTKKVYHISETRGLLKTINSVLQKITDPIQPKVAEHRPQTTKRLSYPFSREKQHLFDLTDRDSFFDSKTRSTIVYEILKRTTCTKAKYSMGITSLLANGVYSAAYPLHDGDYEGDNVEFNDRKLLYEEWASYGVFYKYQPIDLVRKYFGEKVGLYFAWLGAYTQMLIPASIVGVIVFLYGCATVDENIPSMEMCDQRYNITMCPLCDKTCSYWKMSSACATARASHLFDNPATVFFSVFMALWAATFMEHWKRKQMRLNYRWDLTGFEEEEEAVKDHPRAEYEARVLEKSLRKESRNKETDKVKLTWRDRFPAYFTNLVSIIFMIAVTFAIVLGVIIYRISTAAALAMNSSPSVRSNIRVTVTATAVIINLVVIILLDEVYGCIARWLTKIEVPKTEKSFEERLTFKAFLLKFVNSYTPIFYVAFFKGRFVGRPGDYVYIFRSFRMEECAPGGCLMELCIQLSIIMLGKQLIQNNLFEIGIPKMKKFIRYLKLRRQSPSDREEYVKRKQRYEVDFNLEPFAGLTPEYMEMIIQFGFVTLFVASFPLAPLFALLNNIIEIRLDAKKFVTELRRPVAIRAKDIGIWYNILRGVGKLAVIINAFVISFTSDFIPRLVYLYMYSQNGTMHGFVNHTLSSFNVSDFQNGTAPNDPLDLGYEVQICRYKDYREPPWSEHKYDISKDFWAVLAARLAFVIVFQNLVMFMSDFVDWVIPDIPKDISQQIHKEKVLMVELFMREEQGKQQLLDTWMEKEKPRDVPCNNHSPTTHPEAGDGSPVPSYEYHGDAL
Experimental: For non‐stationary noise analysis (Heinemann and Conti, 1992; Tammaro and Ashcroft, 2007), 80–200 identical pulses to a test potential of −70 mV (filtered at 10 kHz and sampled at 50 kHz) were applied, and the mean response, I, was calculated. The variance, σ ^2, was computed from the average squared difference of consecutive traces. Background variance and current at 0 mV were subtracted, and the variance–mean plot was fit by (4) σ^2=iI−I^2/N,
with the single channel current, i, and the number of channels, N, as free parameters.
Non‐stationary noise analysis was performed in the presence of 300 nM [Ca^2+]i during a tail pulse to −70 mV (Figure 8). In the absence of A9C, the i of TMEM16A was 0.22 ± 0.01 pA (n = 9). In the presence of 100 and 1000 μM [A9C]ext, i was 0.22 ± 0.01 pA (n = 9) and 0.23 ± 0.02 pA (n = 9) respectively. […] In the absence of A9C, the P o of TMEM16A was 0.09 ± 0.02 (n = 9) while in the presence of 100 and 1000 μM [A9C]ext, the P o was 0.41 ± 0.06 (n = 9) and 0.62 ± 0.06 (n = 9) respectively. Thus, extracellular A9C increased TMEM16A channel P o at a fixed V m and [Ca^2+]i.

Mouse TMEM16A [3] = molecular target: T1, Mouse TMEM16A; test: Whole-cell TMEM16A current in the absence of [Ca2+]i; format: cell-based; conditions: 3000 μM extracellular A9C
Experimental: as §1
The gating of TMEM16A channels is modulated by changes in [Ca^2+]i and V m. To study the effect of A9C on the intrinsic V m‐dependence of the channel, extracellular A9C (3000 μM) was applied during whole‐cell patch‐clamp in the absence of [Ca^2+]i (Figure 9). The stimulation protocol was similar to that used in Figure 1. However, because TMEM16A current in the absence of [Ca^2+]i are evident at V m greater than ~100 mV (Xiao et al., 2011), test pulses were elicited up to a value of +140 mV. Consistent with previous studies (Xiao et al., 2011), TMEM16A current in the absence of [Ca^2+]i appeared almost instantaneously in response to strong depolarizations (Figure 9). […]

human TMEM16A = molecular target: human TMEM16A; set-up: method as in Bradley et al. (2014); conditions: +80 mV, ref Bradley et al. (2014); cited from earlier work

P o (Mouse TMEM16A [2]; 100 μM [A9C]ext): 0.41 ± 0.06
single channel current i (Mouse TMEM16A [2]; 100 μM [A9C]ext): 0.22 ± 0.01 pA
P o (Mouse TMEM16A [2]; 1000 μM [A9C]ext): 0.62 ± 0.06
single channel current i (Mouse TMEM16A [2]; 1000 μM [A9C]ext): 0.23 ± 0.02 pA
tail currents at negative Vm (Mouse TMEM16A [3]): no large increase
TMEM16A current density (Mouse TMEM16A [3]; +140 mV, control 13.0 ± 4.0): 7.3 ± 3.8 pA∙pF^−1
SMILES: O=C(O)c1c2ccccc2cc2ccccc12 [A9C, Anthracene‐9‐carboxylic acid]
current density in non-transfected HEK-293T cells [1]: 3.7 ± 0.7 pA∙pF^−1
Ki (human TMEM16A): ~60 µM
